Experimental findings from PubChem BioAssay AID1259426 (Fisher Drug Discovery Resource Center, 2018) are described below.

One may read the EC50 as the concentration giving half of the maximal effect.

Calls of active or inactive are those of the source.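 How the source made its calls: active means EC50 under a set limit in control cells lacking the mosquito receptor, marking a fluorescence artifact; inactive means the rest.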 A value given as a limit tells only on which side of the number the result lay.

This assay has as its target HEK293 Galpha15/GCaMP6s without NPYLR7, calcium fluorescence. The experiment in a line: nonspecific activation in parental Galpha15/GCaMP6s cells – cell-based, HEK293 lacking NPYLR7, counter-screen for mosquito NPYLR7 agonist project, dose response (AID 1259426).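 Further: potency for a rise in fluorescence over baseline.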
For `COc1ccc2oc(=O)c(-c3nnc(Nc4cc(Cl)ccc4OC)s3)cc2c1`, the EC50 is > 20 µM (inactive).

Turning to `CCOC(=O)C1CCCN(c2nc3nonc3nc2N2CCSCC2)C1` (stereo unspecified), the EC50 was > 20 µM (inactive).

Take `CCCCN(CC(=O)Nc1c(-c2ccccc2)c(C)nn1-c1ccccc1C)S(=O)(=O)c1ccc(F)cc1`: the EC50 was > 20 µM (inactive).

With `N#C/C(=C/c1ccc(N2CCCCC2)o1)c1cccc(F)c1`, the EC50 was > 20 µM (inactive).

As for `O=C(COc1ccccc1)N1CCCC(CNS(=O)(=O)c2cccs2)C1` (stereo unspecified), the EC50 is > 20 µM (inactive).

Take `N#CC(C#N)=C1C=C2C=C(N3CCN(Cc4ccccc4)CC3)CCC2CC1` (stereo unspecified): the EC50 is > 20 µM (inactive).

Consider `CN1C(=S)N(C2CCCCC2)C(=O)/C1=C\c1ccc2c(c1)OCO2`, for which the EC50 is > 20 µM (inactive).

Consider `COc1ccc(OC)c(CCNc2nc3cnc(-c4ccc5c(c4)OCO5)cc3n2C)c1`, for which the EC50 was > 20 µM (inactive).

`O=C1SC(Nc2ccc(Br)cc2)C(=O)N1c1ccccc1` (stereo unspecified): the EC50 was 17.9 µM.

With `CNC(=O)NC(=O)CCN1CC(c2ccccc2Cl)c2c([nH]c3ccccc23)C1C` (stereo unspecified), the EC50 is > 20 µM (inactive).

For `O=[N+]([O-])c1cc(S(=O)(=O)Nc2cc(Cl)ccc2F)ccc1F`, the EC50 was > 20 µM (inactive).

In the case of `CC1CC2(C)Oc3ccccc3C3OCC1(CO)C(C)C32` (stereo unspecified), the EC50 is > 20 µM (inactive).

On to `CC(=O)NN1C(=O)/C(=C\c2ccc(O)cc2)SC1=S`, for which the EC50 was 3.61 µM.

For `O=[N+]([O-])c1ccc(Cl)c2nonc12`, the EC50 is 4.83 µM.

With `CN(Cc1ccccc1)c1cc(Oc2cccc(Cl)c2)ncn1`, the EC50 was > 20 µM (inactive).

Consider `O=C1/C(=C/c2cc3ccccc3o2)Oc2cc(O)ccc21`, for which the EC50 is > 20 µM (inactive).

Consider `Cc1cc2c(c(-c3ccc4c(cnn4C)c3)c1)OC(CN)C2` (stereo unspecified), for which the EC50 is > 20 µM (inactive).

Turning to `CCOC(=O)N1CCN(c2ccc(/C=C(\C#N)c3nc4ccccc4n3C)o2)CC1`, the EC50 is > 20 µM (inactive).

On to `CC1N(C)c2ccc(C=Cc3cc[n+](C)cc3)cc2C1(C)C` (stereo unspecified), for which the EC50 is 8.49 µM.

`O=c1cc(C(F)(F)F)c2ccc(O)cc2o1`: the EC50 was 6.31 µM.

As for `CCN1CCN(Cc2c(O)cc(C)c3c2O/C(=C\c2ccco2)C3=O)CC1`, the EC50 was 9.72 µM.

As for `Nc1c(S(=O)(=O)O)cc2c3c(cccc13)C(=O)N(CCO)C2=O`, the EC50 is 0.154 µM.

Consider `Nc1ncnc2c1ncn2[C@@H]1O[C@H](CO)[C@@H](O)[C@H]1O`, for which the EC50 was less than 0.039 µM.

Consider `Nc1ccc(-c2nc3cc(N)cc(Cl)c3o2)cc1`, for which the 50% effective concentration (EC50) was 17 µM.

Regarding `C#CCN1C(=O)SC(=Cc2ccc(N3CCCCC3)o2)C1=O`, the EC50 was 2.36 µM.

As to `NS(=O)(=O)c1ccc(NC(NC(=O)c2ccco2)C(=O)c2ccc(Cl)cc2)cc1` (stereo unspecified), the EC50 is > 20 µM (inactive).

As for `N#Cc1cc2cc(Cl)cc(Cl)c2oc1=O`, the 50% effective concentration (EC50) was 1.94 µM.

Consider `CNCC(O)c1ccc(O)c(O)c1` (stereo unspecified), for which the EC50 is 0.327 µM.

For the compound `COc1ccc2c(c1)OCC(C=C(C#N)S(=O)(=O)c1ccc(Br)cc1)=C2`, the EC50 was > 20 µM (inactive).

For the compound `O=C(C1=NN(c2ccccc2)C2C(=O)N(c3ccccc3)C(=O)C12)c1ccccc1` (stereo unspecified), the EC50 is > 20 µM (inactive).

Take `CC(C(=O)O)n1c(O)c(C=C2C=Nc3ccccc32)sc1=S` (stereo unspecified): the concentration giving a half-maximal response (EC50) was 6.92 µM.

Consider `O=C(O)c1ccccc1-c1c2cc(Br)c(=O)cc-2oc2[c]([Hg])c(O)c(Br)cc12`, for which the EC50 is less than 0.039 µM.

On to `O=C1/C(=C/c2cc3ccccc3o2)Oc2c1ccc(O)c2CN1CCN(CCO)CC1`, for which the EC50 is 1.94 µM.

As for `Cc1ccc(CNC(=O)NC(c2ccc3c(c2)OCCCO3)C(C)C)cc1F` (stereo unspecified), the EC50 is > 20 µM (inactive).

For `COc1cc(C=C(C#N)S(=O)(=O)c2cc(Cl)ccc2Cl)cc(Br)c1O`, the EC50 was 6.43 µM.

For `Cc1nc(Sc2nnc3ccccn23)c2c3c(sc2n1)CCCC3`, the EC50 was > 20 µM (inactive).

Consider `COc1ccc(-c2cccc(-c3ccc(NC(=O)c4oc5ccccc5c4C)cc3)n2)cc1`, for which the EC50 is > 20 µM (inactive).

Take `COc1ccc(NC[C@@H]2C=C(C)[C@H](Cc3nnc(C)o3)C[C@H]2C(C)C)cn1`: the EC50 is 13.3 µM.

In the case of `CC(C)(C)c1cnc(CSc2cnc(NC(=O)C3CCNCC3)s2)o1`, the EC50 was > 20 µM (inactive).

Turning to `CCCc1[nH]n(-c2ccc(Cl)cc2)c(=O)c1/C=C1\NC(=O)N(Cc2ccc(C)cc2)C1=O`, the EC50 is > 20 µM (inactive).

`N#C/C(=C\c1ccc(O)c(O)c1)C(=O)Nc1ccccc1`: the EC50 is > 20 µM (inactive).

As to `CCCn1c2c(c(=O)n(C)c1=O)C(=O)C(=Cc1ccc(N(C)C)cc1)N2`, the EC50 is 2.17 µM.

In the case of `COc1ccc(C(=O)C=Cc2cc(OC)c(O)c(OC)c2)cc1F`, the EC50 was 5.86 µM.

For `N#CC1C(=N)Oc2cc(O)ccc2C1c1ccncc1` (stereo unspecified), the EC50 was 7.22 µM.

In the case of `CCOC(=O)c1ccccc1-c1c2ccc(=N)cc-2oc2cc(N)ccc12`, the concentration giving a half-maximal response (EC50) is less than 0.039 µM.

On to `CN1C(=S)N(c2ccc3c(c2)CCC3)C(=O)/C1=C\c1ccncc1`, for which the EC50 is > 20 µM (inactive).

In the case of `CCOC(=O)C1=C(C)NC(C)=C(C(=O)OCC)C1c1cc(Cl)ccc1OC(F)F`, the EC50 is 14.7 µM.

Take `CSc1ccc(C2CC(c3ccc(Cl)cc3)=Nc3ncnn32)cc1` (stereo unspecified): the EC50 was > 20 µM (inactive).

For `COc1ccc2c(C)nc(N=C(N)N)nc2c1`, the EC50 was > 20 µM (inactive).

For the compound `O=C(O)CN1C(=O)/C(=C/c2cc(Br)c(O)c(Br)c2)SC1=S`, the EC50 is 0.289 µM.

Consider `CCN1CCc2c(sc(NC(=O)COc3ccccc3)c2-c2nc3ccccc3s2)C1`, for which the EC50 was > 20 µM (inactive).

For `CCN1CCN(c2ccc(C(=O)C=Cc3ccc(O)c(OC)c3)cc2F)CC1`, the EC50 is 11.2 µM.

Regarding `Oc1ccc(-c2onc3ccc(Cl)cc23)cc1`, the EC50 is > 20 µM (inactive).

Turning to `N#CC(C#N)=C1C=C2C=C(N3CCc4ccccc4C3)CCC2CC1` (stereo unspecified), the EC50 was > 20 µM (inactive).

In the case of `Cc1cc(O)c(CN2CCCC2)c2c1C(=O)/C(=C/c1cc3ccccc3o1)O2`, the EC50 was > 20 µM (inactive).

As for `O=C1OC(c2ccc(Cl)c([N+](=O)[O-])c2)=N/C1=C\c1cc2cc3c4c(c2oc1=O)CCCN4CCC3`, the EC50 is less than 0.039 µM.

Regarding `O=C(Nc1cccc(-c2nnco2)c1)C1CCCCC1`, the EC50 is > 20 µM (inactive).

As for `O=C1c2ccccc2C(=O)C1c1ccnc2ccccc12`, the EC50 is 17.3 µM.

As to `CCN1CC=C2C(C#N)C(=N)C(C#N)(C#N)C(c3cccs3)C2C1` (stereo unspecified), the EC50 was > 20 µM (inactive).

Turning to `CS(=O)(=O)c1ccc(-c2cccc3c2OC(CNC(=O)c2cc[n+]([O-])cc2)C3)cc1` (stereo unspecified), the EC50 was > 20 µM (inactive).

`C=C(C)Cn1c(C(=O)N2CCN(C(=O)CCC(=O)OCC)C(C)C2)cc2ccoc21` (stereo unspecified): the EC50 is > 20 µM (inactive).

On to `CC(C)OC(=O)C(C(=O)C(F)(F)F)c1cc(NS(=O)(=O)c2ccc(Cl)cc2)ccc1O` (stereo unspecified), for which the EC50 is > 20 µM (inactive).

For the compound `CCOc1ccc(/C=C2N=C(/C=C/c3ccccc3)OC/2=O)cc1`, the EC50 is > 20 µM (inactive).

With `CCNc1ccc(OC)nc1`, the EC50 was > 20 µM (inactive).

Consider `NC(=S)N/N=c1\oc2cc(O)ccc2cc1-c1nc2ccccc2[nH]1`, for which the EC50 is 0.155 µM.

For the compound `N#CC(C#N)=C1C=C2C=C(N3CCCCC3)CCC2CC1` (stereo unspecified), the EC50 was less than 0.039 µM.

In the case of `Cc1cc(O)c(CN2CCCCC2)c2c1C(=O)/C(=C/c1cc3ccccc3o1)O2`, the EC50 was 18.5 µM.

For `CCOC(=O)c1nc2ccccc2nc1N1CCN(C(=O)N2CCOCC2)CC1`, the EC50 is > 20 µM (inactive).

On to `Cc1c(NC(=O)COC(=O)C(C#N)=Cc2ccc(N(C)C)cc2)c(=O)n(-c2ccccc2)n1C`, for which the EC50 is > 20 µM (inactive).

For `COc1ccc(N2CCN(c3cc(C(F)(F)F)nc(SCc4cccc(C(=O)NCc5ccccn5)c4)n3)CC2)cc1`, the EC50 was > 20 µM (inactive).

As for `O=c1oc2c(CN3CC4CC(C3)c3cccc(=O)n3C4)c(O)ccc2cc1-c1nc2ccccc2s1` (stereo unspecified), the EC50 is 13.4 µM.

On to `CCN(CC)c1ccc(/C=C2\SC(=S)N(CC(=O)O)C2=O)c(O)c1`, for which the EC50 was 1.15 µM.

For the compound `CC(C)C(C(=O)O)N1C(=O)/C(=C/c2ccc(O)cc2)SC1=S` (stereo unspecified), the EC50 is 8.26 µM.

Take `CNC[C@@H](O)c1ccc(O)c(O)c1`: the EC50 is less than 0.039 µM.

Regarding `CCn1c(O)c(C=Nc2c(C#N)c(C)c(C)n2C2CCCCC2)c(=O)n(CC)c1=S`, the EC50 was 1.31 µM.

Regarding `COc1cc(/C=C2\SC(=S)N(C(C)C(=O)O)C2=O)ccc1O` (stereo unspecified), the EC50 is 3.02 µM.

With `O=C1/C(=C/c2cccc(Br)c2)Oc2c1ccc(O)c2CN1CCN(CCO)CC1`, the EC50 was 12.7 µM.

Consider `COc1cc(C=C2N=C(c3ccc4c(c3)OCO4)OC2=O)cc2c1OCCO2`, for which the EC50 is > 20 µM (inactive).

`CC1CN(c2ccc(/C=C(\C#N)c3nc4ccccc4[nH]3)o2)CC(C)O1` (stereo unspecified): the EC50 was > 20 µM (inactive).

Regarding `CC1C(=O)c2cccc3c(=O)n(-c4ccccc4)c(O)c(c23)C1=O` (stereo unspecified), the EC50 was > 20 µM (inactive).

In the case of `O=C1SC(Nc2ccc(I)cc2)C(=O)N1c1ccccc1` (stereo unspecified), the EC50 was 18.1 µM.

On to `CC(C)N1CCc2c(sc(NC(=O)C3CC3)c2-c2nc3ccccc3s2)C1`, for which the EC50 was 4.79 µM.

On to `Cc1[nH]c(/C=C2\C(=O)Nc3ccccc32)c(C)c1CCC(=O)O`, for which the EC50 is less than 0.039 µM.

As for `CC(C)NC[C@@H](O)c1ccc(O)c(O)c1`, the EC50 is 1.37 µM.

In the case of `CCCCCn1c(=O)c2c(nc3n2CCN3c2cc(C)cc(C)c2)n(C)c1=O`, the EC50 is > 20 µM (inactive).

As to `COc1cccc(CN2COc3ccc4c(c3C2)O/C(=C\c2ccncc2)C4=O)c1`, the EC50 is 11.1 µM.

As for `O=C(O)c1csc(CSc2nnc(-c3ccncc3)n2-c2cccc(C(F)(F)F)c2)n1`, the EC50 was > 20 µM (inactive).

As to `O=C(O)c1[nH]ncc1CN1CCc2onc(-c3ccc(C(F)(F)F)cc3)c2C1`, the EC50 was > 20 µM (inactive).

Regarding `Cc1cc(C=C2Sc3ccccc3N2C)cc(C)[n+]1Cc1ccncc1`, the EC50 is 18.9 µM.

For `CCN1CCc2c(sc(NC(=O)c3ccccc3)c2-c2nc3ccccc3s2)C1`, the EC50 was > 20 µM (inactive).

With `COCCCNCc1c(-c2ccc(F)cc2)noc1N1CCOCC1`, the EC50 is > 20 µM (inactive).
